We go through six compounds from publication PMC5629014, “Assessment of sesquiterpene lactones isolated from Mikania plants species for their potential efficacy against Trypanosoma cruzi and Leishmania sp” (PLoS Neglected Tropical Diseases, 2017).

≈ marks a conversion by molar mass, not a printed value. Entries after “also recorded” stand apart in the source; their conditions may differ. Where two headings read alike, the source gives them in different places.

The subject of series [1] is T. cruzi epimastigotes (RA strain). As to the kind of experiment: T. cruzi epimastigotes growth inhibition, [3H] thymidine uptake assay. The settings on record: for IC50: Trypanosoma cruzi, read-out: IC50 on T. cruzi epimastigotes. The class given is cell-based, Trypanosoma cruzi. The method, then: (§1) Trypanosoma cruzi epimastigotes (RA strain) were grown in a biphasic medium. Cultures were routinely maintained by weekly passages at 28°C. T. cruzi bloodstream trypomastigotes (RA strain) and the recombinant Tulahuen strain expressing β-galactosidase (Tul-β-Gal) were obtained from infected CF1 mice by cardiac puncture at the peak of parasitemia on day 15 post-infection. Trypomastigotes were routinely maintained by infecting 21-day-old CF1 mice.
The evaluation of T. cruzi epimastigotes growth inhibition was performed by the [^3H] thymidine uptake assay. Briefly, exponentially growing epimastigotes were adjusted to a cell density of 1.5 × 10^6 parasites/mL in fresh medium. Parasites were allowed to grow for 72 h at 28°C in medium with or without different concentrations of each compound (0–5 μg/mL) in triplicate. Percent of inhibition was calculated as {100 − [(cpm of treated parasites/ cpm of untreated parasites) × 100]}. The compound concentration at which the parasite growth was inhibited by 50% (IC50) was determined after 72 h. Benznidazole was used as positive control.

For series [2], the system named is T. cruzi bloodstream trypomastigotes. In words: Trypanocidal effect on bloodstream trypomastigotes, live parasite count in Neubauer chamber. The class given is cell-based. The settings on record: Trypanosoma cruzi; 24 h, remaining live parasites counted. On the procedure: as §1
The trypanocidal effect of the purified compounds was also tested on bloodstream trypomastigotes. Briefly, mouse blood containing trypomastigotes was diluted in complete RPMI -1640 Medium (Sigma-Aldrich R6504- Batch 029K83102) with 10% (vol/vol) fetal calf serum (FCS) (Internegocios) to adjust the parasite concentration to 3 × 10^5/mL. Parasites were seeded in duplicate in a 96-well microplate in the presence of each compound (0–50 μg/mL) or controls and incubated at 4 °C for 24 h. The number of remaining living parasites in each sample was determined in 5 μL of cell suspension diluted 1/5 in lysis buffer (0.75% NH4Cl, 0.2% Tris, pH 7.2) and counted in a Neubauer chamber. Benznidazole was used as positive control.

Series [3] can be described thus: Host cell toxicity, trypan blue exclusion method. It counts as cell-based, human. The settings on record: human. On the procedure:
(§2) The human monocyte leukemia THP1 (ATCC TIB202) cell line were obtained from the vendor. Cells were thawed, expanded and settled at a concentration 5x10^5 in a final volume of 150 μL in a flat-bottom 96-well microplate and cultured at 37°C in a 5% CO2 atmosphere in the absence or presence of increasing concentrations of the pure compounds. After 24 h, the cell viability was determined by the trypan blue exclusion method in the absence and presence of increasing concentrations of the compounds [26]. The 50% cytotoxic concentration (CC50) and the selectivity index (SI = CC50/IC50) were determined for each compound for T. cruzi trypomastigotes and amastigotes.

The test system of another series is T. cruzi amastigotes. As to the kind of experiment: Inhibition of intracellular amastigotes, β-galactosidase transfected parasites in Raw 264.7 cells (CPRG). The class given is cell-based. The settings on record: Trypanosoma cruzi. On the procedure:
as §1
The effect of each compound on intracellular forms of T. cruzi was assayed using β-galactosidase transfected parasites. Briefly, 96-well plates were seeded with Raw 264.7 cells at 5x10^3 per well in […] of culture medium and incubated for 24 h at 37 °C in a 5% CO2 atmosphere. Cells were washed and infected with transfected blood trypomastigotes expressing β-galactosidase at a parasite/cell ratio of 10:1. After 12 h of co- culture, plates were washed twice with PBS to remove unbound parasites and each pure compound was added at different concentrations (0.001–50 μg/mL) in 150 μL of fresh complete RPMI medium without phenol red (Gibco, Rockville, MD). Controls included infected untreated cells (100% infection control) and uninfected cells (0% infection control). The assay was developed 5 days later by the addition of chlorophenol red-β-D-galactopyranoside (CPRG) (100 mM) and 1% Nonidet P40. Plates were then incubated for 4–6 h at 37 °C and the absorbance was measured at 595 nm in a microplate reader (Bio-Rad Laboratories, Hercules, CA). The percentage inhibition was calculated as 100–{[(absorbance of treated infected cells)/(absorbance of untreated infected cells) x 100} and the IC50 value was estimated. Benznidazole was used as positive control.

The subject of series [4] is Leishmania braziliensis promastigotes (MHOM/BR/75/M2903 strain). In words: Growth inhibition of Leishmania braziliensis promastigotes, MTT method. The class given is cell-based. Conditions: 72 h, read-out: IC50 on L. braziliensis promastigotes. On the procedure: Leishmania braziliensis promastigotes (MHOM/BR/75/M2903 strain) were grown in liver infusion tryptose medium LIT, which was prepared as follows: 5 g/L liver infusion (Sigma 2023-072K1066), 5 g/L tryptose (Britania), 2 g/L glucose (Sigma), 68 mM NaCl, 5.4 mM KCl, 22 mM HPO4Na2, supplemented with 20 mg/L hemin (Sigma) and 10% (vol/vol) fetal calf serum (FCS) (Internegocios). Culture maintenance was performed by weekly passages at 26°C.
The growth inhibition of Leishmania braziliensis promastigotes was evaluated by the MTT method. Parasites (5x10^6) were settled at a final volume of 150 μL in a flat-bottom 96-well microplate and cultured at 37°C in a 5% CO2 atmosphere in the absence or presence of increasing concentrations of the pure compounds. After 72 h, 3-(4,5- dimethylthiazol-2-yl)-2,5-diphenyltetrazolium bromide (MTT) was added at a final concentration of 1.5 mg/mL. Plates were incubated for 2 h at 37°C. The purple formazan crystals formed were completely dissolved by adding 150 μL of ethanol and the absorbance was read at 595 nm in a microplate reader. The inhibition percentage was calculated as {100 − [(DO595nm of treated parasites/ DO595nm of untreated parasites) × 100]}. Compounds were tested at 0–50 μg/mL. Amphotericin B was used as positive control.
On the technique in general: Tetrazolium assays rely on reduction of a dye to a coloured formazan, in cell work by metabolically active cells.

Series [5] concerns human monocyte leukemia THP1 cells. In words: Host cell toxicity, trypan blue exclusion method. The class given is cell-based. Conditions: 24 h. On the procedure:
as §2

For the next series, the system named is T. cruzi (RA strain). As to the kind of experiment: Animal model of T. cruzi infection (acute, lethal dose). The class given is in vivo, Balb/c mice. On the procedure:
Inbred male Balb/c mice were nursed at the Departamento de Microbiología, Facultad de Medicina, Universidad de Buenos Aires. Groups of six Balb/c male mice (6 to 8 weeks old) were infected with 1000 bloodstream T. cruzi trypomastigotes by the intraperitoneal route. Five days after infection, the presence of circulating parasites was confirmed by the microhematocrit method (Sülsen et al., 2013). Mice were treated daily with compound 3 or benznidazole (1 mg/kg of body weight/day) for five consecutive days (days 4 to 8 post-infection) by the intraperitoneal route. Drugs were resuspended in DMSO and then adjust to concentration in 0.1 M phosphate buffered saline (PBS, pH 7.2); this vehicle was also employed as a negative control. Levels of parasitemia were monitored every 2 days in 5 μL of blood diluted 1:5 in lysis buffer (0.75% NH4Cl, 0.2% Tris, pH 7.2) by counting parasites in a Neubauer chamber. The number of animal deaths was recorded daily.
The weight of each animal was evaluated during the acute phase of infection. Results were expressed as the ratio between the weight on each day and the weight registered the day of the infection multiplied by 100.
Parasitemia and weight loss were analyzed using a non parametric test: Mann-Whitney test. The survival curves were analyzed with a log rank test.

A further series deals with IL-12. In words: Cytokine production by macrophages, IL-12 sandwich ELISA. The class given is cell-based. Conditions: RAW 264.7 macrophages, 24 h. On the procedure:
[…] After 24 h, supernatants were collected and stored at -80 °C until cytokine analysis. IL-12 and TNF-α levels were determined by sandwich ELISA (BD Pharmingen, and R&D System, Minneapolis, MN, respectively) according to manufacturer’s instructions. Supplied standards were used to generate a standard curve.
(In an ELISA, binding on a coated surface is turned into a signal by an enzyme label.)

In the next series the test system is TNF-α. As to the kind of experiment: Cytokine production by macrophages, TNF-α sandwich ELISA. It counts as cell-based. Conditions: RAW 264.7 macrophages, 25 μg/mL, 24 h, p<0.01. On the procedure: RAW 264.7 (ATCC TIB71) macrophage cell line were obtained from ATCC and cultured (1×10^5) in duplicate in 24-well plates in the presence of 2.5 or 25 μg/mL of Compound 3, LPS (10 μg/mL) plus INF-γ (0.30 μg/mL) (positive control), or medium alone (negative control). After 24 h, supernatants were collected and stored at -80 °C until cytokine analysis. IL-12 and TNF-α levels were determined by sandwich ELISA (BD Pharmingen, and R&D System, Minneapolis, MN, respectively) according to manufacturer’s instructions. Supplied standards were used to generate a standard curve.

Where [6] appears, read: 72 h, 28°C, [3H] thymidine uptake.
[7] abbreviates: THP1 (ATCC TIB202) monocyte leukemia cells.
Setting [8] is: RAW264.7, β-galactosidase expressing T. cruzi in mammalian cells, read-out: IC50 on T. cruzi amastigotes.
The mark [9] stands for this setting: infected Balb/c mice, 1 mg/kg/day i.p., days 4 to 8 post-infection.

In general, IC50 refers to the concentration needed to halve the response being measured. Broadly, the CC50 is the concentration that lowers cell viability or growth by half. High values mean lower toxicity to the cells, low ones greater toxicity to the cells. As to `C=C1C(=O)OC2CC3(C)OC3C3OC3C3=CC(OC3=O)C12` (centres unmarked) [mikanolide], the IC50 in series [1] is 0.7 µg/mL (≈ 2.41 µM); in series [2], 2.1 µg/mL (≈ 7.23 µM); in the series with T. cruzi amastigotes (RAW264.7, read-out: IC50 on T. cruzi amastigotes) it was 4.5 µg/mL (≈ 15.5 µM); in series [4], 5.1 µg/mL (≈ 17.6 µM). The CC50 at 24 h in series [3] (THP1 cells) amounted to 22.3 µg/mL (≈ 76.8 µM).

For `C[C@H]1C(=O)O[C@H]2C[C@]3(C)O[C@H]3[C@@H]3O[C@@H]3C3=C[C@@H](OC3=O)[C@@H]21` [dihydromikanolide], the IC50 stood at 2.5 µg/mL (≈ 8.55 µM) in series [1] (setting [6]), 0.3 µg/mL (≈ 1.03 µM) in [2], 8.5 µg/mL (≈ 29.1 µM) in the series on T. cruzi amastigotes (setting [8]) and 57.1 µg/mL (≈ 195 µM) in series [4] (MTT). The compound also had a CC50 in series [5] of 13.0 µg/mL (≈ 44.5 µM). Moreover, the CC50 at 24 h in series [3] (setting [7]) turned out to be 13 µg/mL (≈ 44.4 µM).

Turning to `O=C(Cn1ccnc1[N+](=O)[O-])NCc1ccccc1` [benznidazole, reference compound], the IC50 in series [1] (setting [6]) turned out to be 1.7 µg/mL (≈ 6.53 µM); in series [2] it was 10.4 µg/mL (≈ 40 µM); in the series on T. cruzi amastigotes (setting [8]), 1.1 µg/mL (≈ 4.23 µM). The “reduction of area under the parasitemia curve with respect to controls” value with T. cruzi (RA strain) (setting [9]) turned out to be 2.3 fold.

Regarding `C=C1C(=O)OC2CC3(C)OC3CC(OC(C)=O)C3=CC(OC3=O)C12` (centres unmarked) [scandenolide], the IC50 in series [1] (setting [6]) turned out to be 137 µg/mL (≈ 410 µM); in [2], 68.4 µg/mL (≈ 205 µM); in the series on T. cruzi amastigotes (setting [8]), 60.6 µg/mL (≈ 181 µM); in series [4] (MTT), 252 µg/mL (≈ 754 µM). Also, the “activity on Trypanosoma cruzi” value in series [1] (in words, all T. cruzi stages (abstract)) was “not active”. The same compound had a CC50 at 24 h in series [3] (setting [7]) of 864 µg/mL (≈ 2580 µM).

`C[C@@H]1[C@H](O)[C@@H](C)/C=C/C=C/C=C/C=C/C=C/C=C/C=C/[C@H](O[C@@H]2O[C@H](C)[C@@H](O)[C@H](N)[C@@H]2O)C[C@@H]2O[C@](O)(C[C@@H](O)C[C@@H](O)[C@H](O)CC[C@@H](O)C[C@@H](O)CC(=O)O[C@H]1C)C[C@H](O)[C@H]2C(=O)O` [amphotericin B, reference compound]: the IC50 in series [4] (MTT) worked out at 0.26 µg/mL (≈ 0.281 µM).

With `C=C1C(=O)OC2CC3(C)OC3CCC3=CC(OC3=O)C12` (centres unmarked) [deoxymikanolide], the concentration for half-maximal inhibition (IC50) was found to be 0.08 µg/mL (≈ 0.29 µM) in series [1] (setting [6]), 1.5 µg/mL (≈ 5.43 µM) in [2], 6.3 µg/mL (≈ 22.8 µM) with T. cruzi amastigotes (setting [8]) and 11.5 µg/mL (≈ 41.6 µM) in series [4] (MTT). In addition, the IL-12 production entry was “slight increase” with IL-12 (2 μg/mL) and “higher production rate” in the series on IL-12 (25 μg/mL). In [5], this compound came in with a CC50 of 79.4 µg/mL (≈ 287 µM). In addition, the CC50 at 24 h in series [3] (setting [7]) was found to be 79.4 µg/mL (≈ 287 µM). In addition, the “weight loss during the acute phase of infection compared to control mice” value with T. cruzi (RA strain) (20 days post infection, p = 0.028) is “able to reduce the weight loss”. In addition, the “reduction of area under the parasitemia curve with respect to controls” value with T. cruzi (RA strain) (setting [9]) is recorded as 1.5 fold. In addition, the “blood parasitemia compared to controls” value in the series with T. cruzi (RA strain) (infected Balb/c mice, 1 mg/kg/day i.p., days 4 to 8 post-infection, 1 mg/kg/day) is reported as “decrease the parasitemia; also recorded: lower blood parasitemia”. Further, in the series with T. cruzi (RA strain) (lethal T. cruzi infection, controls 100% mortality by day 22, p = 0.02 Log-rank), the “mice surviving the acute phase of infection” value is 70%. The “secretion of TNF-α compared with negative control” value in the series on TNF-α was “significant increase”.
